Molecules are shown by their SMILES.

The experiment deals with T1, SIRT1 (Homo sapiens, UniProt Q96EB6).
T1 sequence (Q96EB6 1-747): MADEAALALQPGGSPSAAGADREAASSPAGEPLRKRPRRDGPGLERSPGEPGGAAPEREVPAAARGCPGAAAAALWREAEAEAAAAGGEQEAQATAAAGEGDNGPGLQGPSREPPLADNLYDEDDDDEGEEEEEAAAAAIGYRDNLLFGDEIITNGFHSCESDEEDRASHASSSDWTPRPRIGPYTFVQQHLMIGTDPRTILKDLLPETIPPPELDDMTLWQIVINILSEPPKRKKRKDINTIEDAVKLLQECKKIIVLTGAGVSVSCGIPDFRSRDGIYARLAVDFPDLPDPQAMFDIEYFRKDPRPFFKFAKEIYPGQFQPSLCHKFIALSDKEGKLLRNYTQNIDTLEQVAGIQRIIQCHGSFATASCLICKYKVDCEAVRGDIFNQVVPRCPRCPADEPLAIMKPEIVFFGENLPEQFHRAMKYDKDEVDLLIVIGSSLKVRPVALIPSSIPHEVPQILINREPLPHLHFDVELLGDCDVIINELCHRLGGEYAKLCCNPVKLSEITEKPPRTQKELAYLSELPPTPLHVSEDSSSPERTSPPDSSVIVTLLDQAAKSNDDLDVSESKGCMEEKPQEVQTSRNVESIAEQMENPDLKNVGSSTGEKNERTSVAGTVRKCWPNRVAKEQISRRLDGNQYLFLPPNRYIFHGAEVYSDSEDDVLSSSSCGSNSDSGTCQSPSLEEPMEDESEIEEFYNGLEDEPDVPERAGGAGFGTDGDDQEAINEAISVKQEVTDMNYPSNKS
Nature of the experiment: mass spectrometry based assay to identify modulators of SIRT1 activity (deacetylation of p53-based acetylated peptide). The experiment is classed as biochemical. Conditions: SIRT1 activation, 10 nM SIRT1, 0.5 μM peptide substrate, 120 μM βNAD+, 25 minutes at 25° C.; for Emax: 25 min, read-out: % Fold Act. (percent maximum fold activation). An excerpt:
A mass spectrometry based assay was used to identify modulators of SIRT1 activity. The mass spectrometry based assay utilizes a peptide having 20 amino acid residues as follows: Ac-EE-K(biotin)-GQSTSSHSK(Ac)NleSTEG-K(5TMR)-EE-NH2 (SEQ ID NO: 1) wherein K(Ac) is an acetylated lysine residue and Nle is a norleucine. The peptide is labeled with the fluorophore 5TMR (excitation 540 nm/emission 580 nm) at the C-terminus. The sequence of the peptide substrate is based on p53 with several modifications. In addition, the methionine residue naturally present in the sequence was replaced with the norleucine because the methionine may be susceptible to oxidation during synthesis and purification.
The mass spectrometry assay is conducted as follows: 0.5 μM peptide substrate and 120 μM βNAD^+ is incubated with 10 nM SIRT1 for 25 minutes at 25° C. in a reaction buffer (50 mM Tris-acetate pH 8, 137 mM NaCl, 2.7 mM KCl, 1 mM MgCl2, 5 mM DTT, 0.05% BSA). Test compounds may be added to the reaction as described above. The SirT1 gene is cloned into a T7-promoter containing vector and transformed into BL21(DE3). After the 25 minute incubation with SIRT1, 10 μL of 10% formic acid is added to stop the reaction. Reactions are sealed and frozen for later mass spec analysis. Determination of the mass of the substrate peptide allows for precise determination of the degree of acetylation (i.e. starting material) as compared to deacetylated peptide (product).
A control for inhibition of sirtuin activity is conducted by adding 1 μL of 500 mM nicotinamide as a negative control at the start of the reaction (e.g., permits determination of maximum sirtuin inhibition). A control for activation of sirtuin activity is conducted using 10 nM of sirtuin protein, with 1 μL of DMSO in place of compound, to determine the amount of deacetylation of the substrate at a given timepoint within the linear range of the assay. This timepoint is the same as that used for test compounds and, within the linear range, the endpoint represents a change in velocity.
For the above assay, SIRT1 protein was expressed and purified as follows. The SirT1 gene was cloned into a T7-promoter containing vector and transformed into BL21(DE3). The protein was expressed by induction with 1 mM IPTG as an N-terminal His-tag fusion protein at 18° C. overnight and harvested at 30,000×g. Cells were lysed with lysozyme in lysis buffer (50 mM Tris-HCl, 2 mM Tris[2-carboxyethyl]phosphine (TCEP), 10 μM ZnCl2, 200 mM NaCl) and further treated with sonication for 10 min for complete lysis. The protein was purified over a Ni-NTA column (Amersham) and fractions containing pure protein were pooled, concentrated and run over a sizing column (Sephadex S200 26/60 global). The peak containing soluble protein was collected and run on an Ion-exchange column (MonoQ). Gradient elution (200 mM-500 mM NaCl) yielded pure protein. This protein was concentrated and dialyzed against dialysis buffer (20 mM Tris-HCl, 2 mM TCEP) overnight. The protein was aliquoted and frozen at −80° C. until further use.
Sirtuin modulating compounds that activated SIRT1 were identified using the assay described above and are shown below in Table 1. The EC1-5 values for the activating compounds are represented by A (EC1-5<1.0 uM), B (EC1-5 1-25 uM), C (EC1-5>25 uM). The percent maximum fold activation is represented by A (Fold activation>150%) or B (Fold Activation<150%).

On to `O=C(Nc1cccc2oc(-c3ccccc3)nc12)c1cscn1` [Compound 100], for which the Emax is less than 150% and the EC1.5 result is recorded as “C (EC1-5>25 uM)”.

As for `O=C(Nc1cccc2oc(-c3ccccc3)nc12)c1cnccn1` [Compound 101], the Emax is less than 150% and the EC1.5 result is on record as “C (EC1-5>25 uM)”.

With `O=C(Nc1cccc2oc(-c3cccc(C(F)(F)F)c3)nc12)c1cscn1` [Compound 102], the Emax was less than 150% and the EC1.5 result is reported as “C (EC1-5>25 uM)”.

Regarding `O=C(Nc1cccc2oc(-c3cccc(C(F)(F)F)c3)nc12)c1cnccn1` [Compound 103], the Emax is less than 150% and the EC1.5 result was “C (EC1-5>25 uM)”.

Regarding `O=C(Nc1cccc2oc(-c3cccc(OC(F)(F)F)c3)nc12)c1cscn1` [Compound 104, N-(2-(3-(trifluoromethoxy)phenyl)benzo[d]oxazol-4-yl)thiazole-4-carboxamide], the Emax is less than 150% and the EC1.5 entry is “C (EC1-5>25 uM)”.

Regarding `O=C(Nc1cccc2oc(-c3cccc(OC(F)(F)F)c3)nc12)c1cnccn1` [Compound 105], the Emax was less than 150% and the EC1.5 entry was “C (EC1-5>25 uM)”.

`O=C(Nc1nccs1)c1cccc2nc(-c3cccc(C(F)(F)F)c3)oc12` [Compound 106]: the Emax was less than 150% and the EC1.5 entry was “C (EC1-5>25 uM)”.

Take `O=C(Nc1ccccn1)c1cccc2nc(-c3cccc(C(F)(F)F)c3)oc12` [Compound 107]: the Emax was less than 150% and the EC1.5 entry was “C (EC1-5>25 uM)”.

As for `O=C(Nc1cccnc1)c1cccc2nc(-c3cccc(C(F)(F)F)c3)oc12` [Compound 108], the Emax is greater than 150% and the EC1.5 result is given as “B (EC1-5 1-25 uM)”.

For the compound `O=C(Nc1nccs1)c1ccnc2sc(-c3cccc(C(F)(F)F)c3)nc12` [Compound 109], the Emax was less than 150% and the EC1.5 result was “C (EC1-5>25 uM)”.

Take `O=C(Nc1ccccn1)c1ccnc2sc(-c3cccc(C(F)(F)F)c3)nc12` [Compound 110]: the Emax was less than 150% and the EC1.5 entry is “C (EC1-5>25 uM)”.

Take `O=C(Nc1nccs1)c1cccc2sc(-c3cccc(C(F)(F)F)c3)nc12` [Compound 111]: the Emax was less than 150% and the EC1.5 entry is listed as “C (EC1-5>25 uM)”.

Take `O=C(Nc1ccccn1)c1cccc2sc(-c3cccc(C(F)(F)F)c3)nc12` [Compound 112]: the Emax was less than 150% and the EC1.5 result is recorded as “C (EC1-5>25 uM)”.

On to `O=C(Nc1cccnc1)c1cccc2sc(-c3cccc(C(F)(F)F)c3)nc12` [Compound 113], for which the Emax was less than 150% and the EC1.5 result is on record as “C (EC1-5>25 uM)”.

Consider `O=C(Nc1nccs1)c1cccc2sc(-c3cccc(OC(F)(F)F)c3)nc12` [Compound 114], for which the Emax was less than 150% and the EC1.5 result is recorded as “C (EC1-5>25 uM)”.

In the case of `O=C(Nc1ccccn1)c1cccc2sc(-c3cccc(OC(F)(F)F)c3)nc12` [Compound 115], the Emax was less than 150% and the EC1.5 entry is “C (EC1-5>25 uM)”.

Take `O=C(Nc1cccnc1)c1cccc2sc(-c3cccc(OC(F)(F)F)c3)nc12` [Compound 116]: the Emax was less than 150% and the EC1.5 entry was “C (EC1-5>25 uM)”.

Consider `O=C(Nc1nccs1)c1cccc2nc(-c3ccccc3OC(F)(F)F)oc12` [Compound 117], for which the Emax was less than 150% and the EC1.5 result is “B (EC1-5 1-25 uM)”.

As to `O=C(Nc1ccccn1)c1cccc2nc(-c3ccccc3OC(F)(F)F)oc12` [Compound 118], the Emax is greater than 150% and the EC1.5 result was “B (EC1-5 1-25 uM)”.

For `O=C(Nc1nc(CN2CCOCC2)cs1)c1cccc2nc(-c3ccccc3OC(F)(F)F)oc12` [Compound 119], the Emax was greater than 150% and the EC1.5 entry is given as “B (EC1-5 1-25 uM)”.

With `O=C(Nc1cccc(CN2CCOCC2)n1)c1cccc2nc(-c3ccccc3OC(F)(F)F)oc12` [Compound 120], the Emax is greater than 150% and the EC1.5 result was “A (EC1-5<1.0 uM)”.

For the compound `O=C(Nc1nccs1)c1cccc2nc(-c3ccccc3C(F)(F)F)oc12` [Compound 121], the Emax is greater than 150% and the EC1.5 result is given as “B (EC1-5 1-25 uM)”.

In the case of `O=C(Nc1ccccn1)c1cccc2nc(-c3ccccc3C(F)(F)F)oc12` [Compound 122], the Emax was greater than 150% and the EC1.5 result is on record as “B (EC1-5 1-25 uM)”.

Turning to `O=C(Nc1nc(CN2CCOCC2)cs1)c1cccc2nc(-c3ccccc3C(F)(F)F)oc12` [Compound 123], the Emax was greater than 150% and the EC1.5 entry is “B (EC1-5 1-25 uM)”.

Consider `O=C(Nc1cccc(CN2CCOCC2)n1)c1cccc2nc(-c3ccccc3C(F)(F)F)oc12` [Compound 124], for which the Emax was greater than 150% and the EC1.5 entry is “A (EC1-5<1.0 uM)”.

On to `O=C(Nc1nccs1)c1cccc2sc(-c3cccc(N4CCOCC4)c3)nc12` [Compound 125], for which the Emax was less than 150% and the EC1.5 result was “C (EC1-5>25 uM)”.

In the case of `O=C(Nc1ccccn1)c1cccc2sc(-c3cccc(N4CCOCC4)c3)nc12` [Compound 126], the Emax was less than 150% and the EC1.5 entry was “C (EC1-5>25 uM)”.

Take `O=C(Nc1cccnc1)c1cccc2sc(-c3cccc(N4CCOCC4)c3)nc12` [Compound 127]: the Emax is less than 150% and the EC1.5 result is given as “C (EC1-5>25 uM)”.

Consider `O=C(Nc1nccs1)c1cccc2sc(-c3cccnc3)nc12` [Compound 128], for which the Emax is less than 150% and the EC1.5 result is reported as “C (EC1-5>25 uM)”.

`O=C(Nc1ccccn1)c1cccc2sc(-c3cccnc3)nc12` [Compound 129]: the Emax was less than 150% and the EC1.5 result is recorded as “C (EC1-5>25 uM)”.

Regarding `O=C(Nc1nccs1)c1cccc2nc(-c3ccc(F)cc3C(F)(F)F)oc12` [Compound 130], the Emax was less than 150% and the EC1.5 result was “B (EC1-5 1-25 uM)”.

Take `O=C(Nc1ccccn1)c1cccc2nc(-c3ccc(F)cc3C(F)(F)F)oc12` [Compound 131]: the Emax was greater than 150% and the EC1.5 result was “B (EC1-5 1-25 uM)”.

As to `O=C(Nc1nc(CN2CCOCC2)cs1)c1cccc2nc(-c3ccc(F)cc3C(F)(F)F)oc12` [Compound 132], the Emax was greater than 150% and the EC1.5 entry is recorded as “B (EC1-5 1-25 uM)”.

With `O=C(Nc1cccc(CN2CCOCC2)n1)c1cccc2nc(-c3ccc(F)cc3C(F)(F)F)oc12` [Compound 133], the Emax was greater than 150% and the EC1.5 result is listed as “B (EC1-5 1-25 uM)”.

Regarding `O=C(Nc1ccccn1)c1cccc2nc(-c3cc(F)ccc3C(F)(F)F)oc12` [Compound 134], the Emax was less than 150% and the EC1.5 result was “B (EC1-5 1-25 uM)”.

For the origin of these results see patent US20120108585A1, “BENZOXAZOLES, BENZTHIAZOLES AND RELATED ANALOGS AS SIRTUIN MODULATORS” (Sirtris Pharmaceuticals, Inc., priority 2008, published 2012).
